In patent US6048862A, “Benzylamidine derivatives with serotonin receptor binding activity” (Virginia Commonwealth University, priority 1999, dated 2000):
Structures can show the parent of a compound that is named as a salt. Where two headings read alike, the source gives them in different places.

Assays:
5-HT1Dα = 5-HT1Dα (Homo sapiens, UniProt P28221); experiment: biochemical; assay type: binding; conditions: for 5-HT1Dβ / 5-HT1Dα: ratio of Ki values, selectivity for 5-HT1Dα over 5-HT1Dβ
Experimental: (§1) Compounds of the previous examples, as well as reference compounds were evaluated for binding affinity using cell types receptive specifically to 5-HT1Dα and 5-HT1Dβ ligands. The assay protocol generally entailed the incubation of membranes prepared from cells expressing the 5-HT1Dα or 5-HT1Dβ subtype of 5-HT receptors with ^3 H-serotonin. Increasing concentrations of the test compound were incubated with the radioligand and the membrane homogenates prepared from the recombinant cells. After a 60 minute incubation at 22° C., the incubation was terminated by vacuum filtration. The filters were washed with buffer and counted for radioactivity using liquid scintillation spectroscopy. The affinity of the test compound for the 5-HT1Dα or 5-HT1Dβ receptor was determined by computer-assisted analysis of the data and by determining the amount of compound necessary to inhibit 50% of the binding of the radioligand to the receptor. Concentrations ranging from 10^-11 M to 10^- 5 M of the test compound were evaluated.

5-HT1Dβ = 5-HT1Dβ (Homo sapiens, UniProt P28222); experiment: Binding affinity, 3H-serotonin displacement, membranes of recombinant cells expressing 5-HT1Dβ
Chain of 5-HT1Dβ (P28222 whole entry): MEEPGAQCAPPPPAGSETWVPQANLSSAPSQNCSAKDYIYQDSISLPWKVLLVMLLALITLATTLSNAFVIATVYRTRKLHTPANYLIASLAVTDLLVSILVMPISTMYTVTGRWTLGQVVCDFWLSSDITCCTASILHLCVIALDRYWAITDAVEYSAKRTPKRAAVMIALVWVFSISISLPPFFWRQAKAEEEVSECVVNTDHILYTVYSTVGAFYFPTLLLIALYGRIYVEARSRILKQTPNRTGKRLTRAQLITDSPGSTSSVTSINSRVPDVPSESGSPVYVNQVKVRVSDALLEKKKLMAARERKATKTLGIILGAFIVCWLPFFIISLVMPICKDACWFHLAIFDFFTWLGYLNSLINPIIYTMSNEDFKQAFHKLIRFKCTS
Experimental: as §1

5-HT1D receptor = target: T1, 5-HT1D receptor (Oryctolagus cuniculus, UniProt P49144); experiment: 5-HT1D receptor agonist assay: contraction of isolated rabbit saphenous vein; assay type: cell-based
T1 construct: Ring segments of the vein (4-5 mm in length) were cut and the endothelium gently removed; from tissue; host or cells: saphenous vein rings, endothelium removed, male New Zealand White rabbit
T1 sequence (P49144 whole entry): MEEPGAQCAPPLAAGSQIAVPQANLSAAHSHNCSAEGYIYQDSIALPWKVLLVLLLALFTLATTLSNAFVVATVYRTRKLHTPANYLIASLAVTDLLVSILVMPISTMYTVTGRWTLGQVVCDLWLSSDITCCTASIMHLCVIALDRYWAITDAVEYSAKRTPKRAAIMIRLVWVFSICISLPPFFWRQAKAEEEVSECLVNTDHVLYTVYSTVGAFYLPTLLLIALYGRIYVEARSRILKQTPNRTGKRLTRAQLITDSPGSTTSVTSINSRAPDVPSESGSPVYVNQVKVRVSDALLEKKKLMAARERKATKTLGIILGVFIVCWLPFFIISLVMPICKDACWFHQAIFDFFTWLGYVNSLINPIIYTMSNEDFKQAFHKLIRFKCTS
Experimental: The saphenous veins from both the left and right side were cleaned of fat and connective tissue and placed in Krebs solution (118 mM NaCl, 11 mM glucose, 25 mM NaHCO3, 4.7 mM KCl, 2.5 mM CaCl2. 2H2 O, 1.2 mM KH2 PO4, and 1.2 mM MgSO4. 7H2 O. Ring segments of the vein (4-5 mm in length) were cut and the endothelium gently removed. The segments were mounted in 10 mL baths containing Krebs buffer and were constantly aerated with 95% oxygen/5% carbon dioxide and maintained at 37° C. and pH 7.4 in order to record the isometric tension. A resting tension of 2.5 g was applied and the tissues allowed to equilibrate for 90 minutes, with washing every 15-20 minutes. After the equilibrium period, the rings were depolarized by the addition of two aliquots of KCl (80 mM final concentration) separated by a 20 minute washing period. The tissues were then exposed to prazosin, idazoxan and indomethacin (all 1 μM final concentration) for 30 minutes in order to exclude the actions of α1 - and α2 -adrenergic receptors and prostaglandin receptors respectively. […] Responses were calculated as a percentage of the maximal contraction evoked by 80 mM KCl. Only one compound was tested per preparation.
EC50 represents the concentration of the compound which causes 50% of the maximum contraction effected by it. If the compound included a maximum contraction of less than 60% of that of KCl (80 mM), it was considered a partial agonist.

[1] = 3H-serotonin radioligand, 60 minute incubation at 22° C., read-out: 5-HT1Dα Kl
[2] = 3H-serotonin radioligand, 60 minute incubation at 22° C., read-out: 5-HT1Dβ Kl
[3] = rabbit isolated saphenous vein, prazosin, idazoxan and indomethacin (1 μM) present, 50% of the compound's own maximum contraction, 37° C., pH 7.4, read-out: EC50

Chain of 5-HT1Dα (P28221 whole entry): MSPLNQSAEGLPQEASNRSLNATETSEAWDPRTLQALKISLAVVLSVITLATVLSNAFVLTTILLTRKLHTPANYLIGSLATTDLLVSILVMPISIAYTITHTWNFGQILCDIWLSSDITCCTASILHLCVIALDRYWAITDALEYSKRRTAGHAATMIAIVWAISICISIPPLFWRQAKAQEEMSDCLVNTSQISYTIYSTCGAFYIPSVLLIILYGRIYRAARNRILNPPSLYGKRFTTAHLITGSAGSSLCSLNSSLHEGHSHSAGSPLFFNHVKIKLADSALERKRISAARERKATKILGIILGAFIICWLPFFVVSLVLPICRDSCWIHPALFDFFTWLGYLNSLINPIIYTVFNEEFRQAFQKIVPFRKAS

SMILES	Ki (5-HT1Dα; [1]) [nM]	5-HT1Dβ / 5-HT1Dα (5-HT1Dα)	Ki (5-HT1Dβ; [2]) [nM]	further results
CC(C)c1ccc(CC2=NCCN2)cc1.Cl [Example 5a, 4,5-Dihydro-2-[(4-isopropylphenyl)methyl]-1H-imidazole Hydrochloride]	340	8	2780	
CC(C)(C)c1ccc(CC2=NCCN2)cc1 [Example 5b, 2-[(4-t-Butyphenyl)methyl]-4,5-dihydro-1H-imidazole hydrochloride]	105	> 95	> 10000	
Cc1cc(C(C)(C)C)cc(C)c1CC1=NCCN1 [Example 5c, 2-[(4-t-Butyl-2,6-dimethylphenyl)methyl]-4,5-dihydro-1H-imidazole hydrochloride]				Ki (5-HT1Dβ): 14.9 nM
Cc1cc(Br)cc(C)c1CC1=NCCN1.Cl [Example 5d, 2-[(4-Bromo-2,6-dimethylphenyl)methyl]-4,5-dihydro-1H-imidazole hydrochloride]	74	21	1570	
Cc1cc(C)c(CC2=NCCN2)c(C)c1.Cl [Example 5e, 4,5-Dihydro-2-[(2,4,6-trimethylphenyl)methyl]-1H-imidazole hydrochloride]		20	3480	Ki (5-HT1Dα): 92 nM
Cc1cc(C(C)C)cc(C)c1CC1=NCCN1.Cl [Example 5f, 4,5-Dihydro-2-[(2,6-dimethyl-4-isopropylphenyl)methyl]-1H-imidazole hydrochloride]		23	37	Ki (5-HT1Dα): 1.6 nM
Cl.c1ccc2cc(CC3=NCCN3)ccc2c1 [Example 5g, 4,5-Dihydro-2-(2-naphthalenylmethyl)-1H-imidazole hydrochloride]		9		Ki (5-HT1Dα): 135 nM; Ki (5-HT1Dβ): 1160 nM
Cc1cc(C(C)(C)C)cc(C)c1CC1=NCCN1Cc1ccccc1.Cl [Example 5i, 2-[(4-t-Butyl-2,6-dimethylphenyl)methyl]-1-benzyl-4,5-dihydroimidazole hydrochloride]	30	62	1860	
Cc1cc(C(C)(C)C)cc(C)c1CC1=NCCCN1.Cl [Example 5j, 2-(4-t-Butyl-2,6-dimethylbenzyl)-1,4,5,6-tetrahydropyrimidine hydrochloride]	35	> 143	> 5000	
Cc1cc(C(C)(C)C)ccc1CC1=NCCN1.Cl [Example 5k, 2-[(4-t-Butyl-2-methylphenyl)methyl]-4,5-dihydro-1H-imidazole hydrochloride]	6.8	105	712	
Cc1cc(C(C)(C)C)cc(C)c1CC(=N)N [Example 6, 4-t-Butyl-2,6-dimethylbenzeneethanimidamide]	13	46	600	
CC(C)(C)c1ccc(CC2=NCCN2)cc1 [drawing 22]				EC50 (5-HT1D receptor; [3]): 2900 nM
Cc1cc(C)c(CC2=NCCN2)c(C)c1 [drawing 23]				EC50 (5-HT1D receptor): 100 nM
Cc1cc(C(C)(C)C)cc(C)c1CC(=N)N [drawing 24]				EC50 (5-HT1D receptor; [3]): 23 nM
Cc1cc(C(C)(C)C)c(O)c(C)c1CC1=NCCN1 [oxymetazoline, reference compound]			0.33	
